Experimental data reported in US9102622B2 (University of Connecticut, priority 2006, dated 2015).
Read-outs that look alike come from different tables or passages of the source.

Experiments:
[1] = target: fatty acid amide hydrolase (FAAH) (Rattus norvegicus (Rat), UniProt P97612); test: FAAH enzyme assay: inhibition of anandamide (AEA) hydrolysis, arachidonic acid quantified by HPLC; format: biochemical; details: for inhibition at 100 µM: inhibitor 100 μM
Description: The resulting supernatant is injected onto the HPLC.

[2] = eight-point assay, anandamide hydrolysis by FAAH, read-out: IC50
[3] = eight-point assay, calculated with Prizm software, read-out: Ki
[4] = one-point assay, partially purified rat brain FAAH, 15 min, read-out: % Inhibition (Concentration)

fatty acid amide hydrolase (FAAH), sequence (P97612 whole entry): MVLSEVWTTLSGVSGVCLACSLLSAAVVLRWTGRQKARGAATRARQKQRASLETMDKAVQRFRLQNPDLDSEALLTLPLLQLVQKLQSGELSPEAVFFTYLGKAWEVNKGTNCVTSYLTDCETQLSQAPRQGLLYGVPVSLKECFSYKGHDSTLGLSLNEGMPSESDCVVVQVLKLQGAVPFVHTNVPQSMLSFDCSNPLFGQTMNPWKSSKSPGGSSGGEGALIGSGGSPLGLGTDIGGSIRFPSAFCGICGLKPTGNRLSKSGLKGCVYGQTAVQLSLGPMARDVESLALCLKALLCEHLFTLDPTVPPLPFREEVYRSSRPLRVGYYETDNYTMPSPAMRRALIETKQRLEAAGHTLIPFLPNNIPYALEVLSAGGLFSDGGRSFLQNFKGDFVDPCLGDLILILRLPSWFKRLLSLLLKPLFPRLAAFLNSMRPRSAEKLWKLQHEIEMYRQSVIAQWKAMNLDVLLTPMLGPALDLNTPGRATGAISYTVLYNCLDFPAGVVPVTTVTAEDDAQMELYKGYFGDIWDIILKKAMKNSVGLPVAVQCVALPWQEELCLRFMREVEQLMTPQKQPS

SMILES	IC50 [1, 2]	Ki [1, 3]	inhibition at 100 µM [1, 4]	melting point	further results
O=S(=O)(F)CCCCCc1ccc(OCc2ccccc2)cc1 [Compound 13.4, 5-(4-Benzyloxy-phenyl)-pentanesulfonyl fluoride]	0.18 µM	0.015 µM	97%	66 to 68 °C	
Oc1cccc(OCCCC(O)(O)C(F)(F)F)c1 (hydrate or solvate) [Compound 24.5, 1,1,1-Trifluoro-2,2-dihydroxy-5-[3-(hydroxy)phenoxy]pentane]				76 to 77 °C	
O=S(=O)(F)CCCCCCCc1ccc(O)cc1 [Compound 14.1, 7-(4-Hydroxy-phenyl)-heptanesulfonyl fluoride]			100%	47 to 51 °C	
O=S(=O)(F)CCCCOc1ccccc1 [Compound 17, 4-Phenoxybutylsulfonyl fluoride]	0.226 µM	0.053 µM	100%	74 to 76 °C	
O=S(=O)(F)CCCCCCCc1ccc(OCc2ccccc2)cc1 [Compound 13.1, 7-(4-Benzyloxy-phenyl)-heptanesulfonyl fluoride]			100%	35 to 38 °C	
COS(=O)(=O)CCCCCCCc1ccc(OCc2ccccc2)cc1 [Compound 18, 7-(4-Benzyloxy-phenyl)-heptane-1-sulfonic acid methyl ester]	0.256 µM	0.078 µM	93%	57 to 59 °C	
O=S(=O)(F)CCCCCc1ccc(O)cc1 [Compound 14.4, 5-(4-Hydroxy-phenyl)-pentanesulfonyl fluoride]	0.346 µM		99%	32 to 35 °C	
O=C(CCCCCCOc1ccc(O)cc1)c1nnc(COCc2ccccc2)o1 [Compound 74.2, 1-(5-benzyloxymethyl-1,3,4-oxadiazol-2-yl)-7-(4-hydroxy-phenoxy)-heptan-1-one]	0.039 µM	0.003 µM	92%		
O=S(=O)(Cl)CCCCCCCc1ccccc1OCc1ccccc1 [Compound 12.3, 7-(2-Benzyloxy-phenyl)-heptanesulfonyl chloride]	1.75 µM	0.41 µM	97%		
O=C(Nc1ccc(I)cc1)Oc1ccccc1 [Compound 48.6, (4-Iodophenyl)carbamic acid phenyl ester]			84%		
O=S(=O)(F)CCCCCCCc1cccc(OCc2ccccc2)c1 [Compound 13.2, 7-(3-Benzyloxy-phenyl)-heptanesulfonyl fluoride]			97%		
O=C(c1cccnc1)C(F)(F)CCCCOc1cccc(OCc2ccccc2)c1 [Compound 89.11, 2,2-Difluoro-6-[3-(benzyloxy)phenoxy]-1-(pyridin-3-yl)-hexan-1-one]	0.024 µM	0.007 µM			inhibition at 0.1 µM ([1]; one-point assay, inhibitor 100 nM, partially purified rat brain FAAH, 15 min, read-out: % Inhibition (Concentration)): 85%
CCOC(=O)C(=O)c1ccc(Br)cc1 [Compound 91.5, Ethyl 2-(4-bromophenyl)-2-oxoacetate]			79%		
O=S(=O)(F)CCCc1ccccc1 [Compound 4.1, 3-Phenyl-propanesulfonyl fluoride, reference compound]			19%		
O=C(NCCCc1ccccc1)Nc1ccccn1 [Compound 59.2, N-(3-phenylpropyl)-N′-(2-pyridinyl)-urea]				127 to 128 °C	
O=C1c2ccccc2S(=O)(=O)N1CCCCOc1ccccc1 [Compound 83.2, N-(4-Phenoxy-butyl)saccharin]	11.6 µM		91%		
O=C(CCCCCCOc1ccccc1)c1nnc(CO)o1 [Compound 74.1, 1-(5-hydroxymethyl-1,3,4-oxadiazol-2-yl)-7-phenoxy-heptan-1-one]	0.015 µM	0.001 µM	96%		
O=C1c2ccccc2S(=O)(=O)N1CCCCOc1ccc(O)cc1 [Compound 84, N-[4-(4-Hydroxy-phenoxy)-butyl]saccharin]	9.1 µM	0.9 µM	92%		
Oc1cccc(OCCCC(O)(O)C(F)(F)F)c1 [Compound 24.5, 1,1,1-Trifluoro-2,2-dihydroxy-5-[3-(hydroxy)phenoxy]pentane]	22.8 µM	2.5 µM	79%		
CCCCCc1cc(OC)c(-c2ccc(C(=O)C(F)(F)F)cc2)c(OC)c1 [Compound 39.2, 1-(2′,6′-Dimethoxy-4′-pentylbiphenyl-4-yl)-2,2,2-trifluoroethanone]			57%		
O=S(=O)(F)CCCCCCCc1ccccc1OCc1ccccc1 [Compound 13.3, 7-(2-Benzyloxy-phenyl)-heptanesulfonyl fluoride]			100%		IC50 [1]: 0.193 µM; Ki [1]: 0.046 µM
CCOC(=O)C(=O)CCCCCOc1ccccc1 [Compound 87.4, 2-Oxo-7-phenoxy-heptanoic acid ethyl ester]	0.29 µM	0.09 µM	100%		
O=S(=O)(F)CCCCCCCCc1ccccc1 [Compound 4.3, 8-Phenyl-octanesulfonyl fluoride, reference compound]					% Inhibition (Concentration) ([1]; one-point assay, concentration not given): 24%
O=S(=O)(Cl)CCCCCCCc1cccc(OCc2ccccc2)c1 [Compound 12.2, 7-(3-Benzyloxy-phenyl)-heptanesulfonyl chloride]	12 µM	2.9 µM	97%		
O=C(CCCCCCOc1ccccc1)c1nnc(COCc2ccccc2)o1 [Compound 73.1, 7-(Phenoxy)-1-(5-benzyloxymethyl-1,3,4-oxadiazol-2-yl)-heptan-1-one]	0.025 µM	0.002 µM	94%		

Further lines, with some results ahead:

IC50 [1, 2]	Ki [1, 3]	inhibition at 100 µM [1, 4]	melting point	SMILES	further results
11.8 µM	0.83 µM	88%	82 to 83 °C	O=C(CCCCCCOc1ccc(OCc2ccccc2)cc1)C(F)(F)F [Compound 23.4, 1,1,1-Trifluoro-8-[4-(Benzyloxy)phenoxy]-2-octanone]	
2.9 µM	0.32 µM	94%	59 to 60 °C	O=C(CCCCCOc1ccc(OCc2ccccc2)cc1)C(F)(F)F [Compound 23.3, 1,1,1-Trifluoro-7-[4-(Benzyloxy)phenoxy]-2-heptanone]	
23.2 µM	2.6 µM	60%	63 to 64 °C	O=C(CCCCOc1ccc(O)cc1)C(F)(F)F [Compound 24.2, 1,1,1-Trifluoro-6-[4-(hydroxy)phenoxy]-2-hexanone]	
0.76 µM	0.054 µM	89%	61 to 62 °C	O=C(CCCCCCOc1ccc(O)cc1)C(F)(F)F [Compound 24.4, 1,1,1-Trifluoro-8-[4-(hydroxy)phenoxy]-2-octanone]	
23.9 µM	1.6 µM	60%	51 to 52 °C	O=C(CCCCOc1ccccc1O)C(F)(F)F [Compound 24.9, 1,1,1-Trifluoro-6-[2-(hydroxy)phenoxy]-2-hexanone]	
13.6 µM	1.2 µM	76%	95.5 to 96 °C	O=C(CCCCOc1ccc(OCc2ccccc2)cc1)C(F)(F)F [Compound 23.2, 1,1,1-Trifluoro-6-[4-(Benzyloxy)phenoxy]-2-hexanone]	
7.9 µM	0.553 µM	95%	31 to 32 °C	O=C(CCCCCOc1ccccc1OCc1ccccc1)C(F)(F)F [Compound 23.10, 1,1,1-Trifluoro-7-[2-(Benzyloxy)phenoxy]-2-heptanone]	
1.8 µM	0.15 µM	96%	59 to 61 °C	O=C(CCCOc1ccc(OCc2ccccc2)cc1)C(F)(F)F [Compound 23.1, 1,1,1-Trifluoro-5-[4-(benzyloxy)phenoxy]-2-pentanone]	
25.4 µM	2.8 µM	65%	50 to 51 °C	O=C(CCCCOc1ccccc1)C(F)(F)F [Compound 23.12, 1,1,1-Trifluoro-6-phenoxy-2-hexanone]	
0.47 µM	0.052 µM	96%		O=C(CCCCCOc1cccc(OCc2ccccc2)c1)C(F)(F)F [Compound 23.7, 1,1,1-Trifluoro-7-[3-(Benzyloxy)phenoxy]-2-heptanone]	
18.8 µM	2.1 µM	53%		O=C(CCCCc1ccccc1)C(F)(F)F [Compound 27.2, 1,1,1-Trifluoro-6-phenyl-2-hexanone]	
0.66 µM	0.046 µM	97%		O=C(CCCCOc1ccccc1OCc1ccccc1)C(F)(F)F [Compound 23.9, 1,1,1-Trifluoro-6-[2-(Benzyloxy)phenoxy]-2-hexanone]	
		86%		O=C(CCCCCCOc1ccccc1)C(F)(F)c1ccccn1 [Compound 96.1, 1,1-Difluoro-8-phenoxy-1-(pyridin-2-yl)octan-2-one]	
		98%		CC(=O)C(F)(F)CCCCOc1ccccc1 [Compound 89.2]	
29.4 µM	2.07 µM	85%		O=C(CCCCOc1cccc(O)c1)C(F)(F)F [Compound 24.6, 1,1,1-Trifluoro-6-[3-(hydroxy)phenoxy]-2-hexanone]	
5.02 µM	0.44 µM			O=C(CCCCCOc1cccc(O)c1)C(F)(F)F [Compound 24.7, 1,1,1-Trifluoro-7-[3-(hydroxy)phenoxy]-2-heptanone]	
			89 to 90 °C	O=C(NCCCc1ccccc1)NCc1ccccn1 [Compound 59.1, N-(3-phenylpropyl)-N′-(2-pyridinylmethyl)-urea]	
26.2 µM	1.8 µM	82%		O=C(CCCCCOc1ccccc1O)C(F)(F)F [Compound 24.10, 1,1,1-Trifluoro-7-[2-(hydroxy)phenoxy]-2-heptanone]	
